Experimental findings from US20040220094A1, “Inverse agonist and agonist peptides that stimulate/inhibit hair growth” (priority 2003, published 2004) are described below.

Non-standard residues stand in square brackets, D forms with d. Residues, ends and D or L forms follow the SMILES beside them. No end group written: not given here. *: point of attachment. Hydrocinnamoyl = O=C(CCc1ccccc1)*; Nle = CCCC[C@H](N)C(=O)O

For experiment [1], the target named is T1, PTH1R receptor (Homo sapiens, UniProt Q03431).
T1 sequence (Q03431 27-593): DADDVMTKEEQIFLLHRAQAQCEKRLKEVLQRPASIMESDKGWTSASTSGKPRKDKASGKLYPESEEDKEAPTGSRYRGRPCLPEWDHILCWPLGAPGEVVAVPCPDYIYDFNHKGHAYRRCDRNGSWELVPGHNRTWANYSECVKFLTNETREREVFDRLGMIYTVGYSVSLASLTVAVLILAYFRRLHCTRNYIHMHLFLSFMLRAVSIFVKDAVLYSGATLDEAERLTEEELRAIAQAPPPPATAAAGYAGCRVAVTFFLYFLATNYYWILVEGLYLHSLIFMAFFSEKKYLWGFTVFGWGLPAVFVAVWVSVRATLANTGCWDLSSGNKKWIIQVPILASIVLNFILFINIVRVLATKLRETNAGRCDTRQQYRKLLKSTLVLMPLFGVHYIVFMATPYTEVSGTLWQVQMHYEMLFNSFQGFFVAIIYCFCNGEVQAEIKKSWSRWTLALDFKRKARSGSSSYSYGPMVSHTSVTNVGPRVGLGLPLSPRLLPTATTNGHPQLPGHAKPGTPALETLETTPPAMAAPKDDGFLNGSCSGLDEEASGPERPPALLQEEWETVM
In words: kidney-based assays. In kind it is binding. The note with it: kidney-based assay.

In experiment [2] the target is T1, PTH1R receptor. In words: bone-based assays. Conditions: bon-based assay. In kind it is binding.
In experiment [3] the target is T1, PTH1R receptor. In words: potency of inverse agonist peptides (assay not specified).
Experiment [4] concerns the target T2, Type I PTH/PTHrP receptor (PTH1R receptor).
T2 chain: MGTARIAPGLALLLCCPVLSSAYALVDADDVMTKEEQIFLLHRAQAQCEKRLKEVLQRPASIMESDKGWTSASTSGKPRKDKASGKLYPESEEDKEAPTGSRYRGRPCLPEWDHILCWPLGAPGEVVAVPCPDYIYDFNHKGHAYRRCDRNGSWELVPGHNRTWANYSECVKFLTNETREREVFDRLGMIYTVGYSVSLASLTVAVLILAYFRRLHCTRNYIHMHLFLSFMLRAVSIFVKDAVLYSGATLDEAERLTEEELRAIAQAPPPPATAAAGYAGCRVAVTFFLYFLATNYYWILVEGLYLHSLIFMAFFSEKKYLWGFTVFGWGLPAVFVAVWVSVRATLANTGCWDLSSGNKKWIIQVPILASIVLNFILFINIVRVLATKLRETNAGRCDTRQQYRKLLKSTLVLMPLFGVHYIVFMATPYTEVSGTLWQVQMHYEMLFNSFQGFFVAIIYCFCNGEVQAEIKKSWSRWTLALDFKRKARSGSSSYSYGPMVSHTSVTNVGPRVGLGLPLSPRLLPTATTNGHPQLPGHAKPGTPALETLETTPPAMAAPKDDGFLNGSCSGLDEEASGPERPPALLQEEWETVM
In words: bone-based assay.

Experiment [5] deals with T2, Type I PTH/PTHrP receptor (PTH1R …). Put plainly: kidney-based assay.

As to `CCCC[C@H](NC(=O)[C@H](CO)NC(=O)[C@H](CO)NC(=O)[C@H](CC(C)C)NC(=O)[C@H](Cc1c[nH]cn1)NC(=O)[C@H](CCCCNC(=O)CCc1ccccc1)NC(=O)CNC(=O)[C@H](CC(C)C)NC(=O)[C@H](CC(N)=O)NC(=O)[C@H](Cc1c[nH]cn1)NC(=O)[C@H](CCCC)NC(=O)[C@@H](N)Cc1ccccc1)C(=O)N[C@@H](CCC(=O)O)C(=O)N[C@@H](CCCNC(=N)N)C(=O)N[C@H](C(=O)N[C@@H](CCC(=O)O)C(=O)N[C@@H](Cc1c[nH]c2ccccc12)C(=O)N[C@@H](CC(C)C)C(=O)N[C@@H](CCCNC(=N)N)C(=O)N[C@@H](CCCCN)C(=O)N[C@@H](CCCCN)C(=O)N[C@@H](CC(C)C)C(=O)N[C@@H](CCC(N)=O)C(=O)N[C@@H](CC(=O)O)C(=O)N[C@H](C(=O)N[C@@H](Cc1c[nH]cn1)C(=O)N[C@@H](CC(N)=O)C(=O)N[C@@H](Cc1ccc(O)cc1)C(=O)O)C(C)C)C(C)C` (H-F[Nle]HNLGK(Hydrocinnamoyl)HLSS[Nle]ERVEWLRKKLQDVHNY-OH; N-terminus and C-terminus assumed), the Ki (commonly the dissociation constant of the complex between target and ligand, obtained from inhibition or displacement) was determined as 73 nM at PTH1R receptor [1] and 3.5 nM on PTH1R receptor [2]. For the same molecule, the Kd at PTH1R receptor [1] (read-out: Kbinding) stood at 4 nM; on PTH1R receptor [2] (read-out: Kbinding), 9 nM.

Consider “Leu-Leu-His-Asp-Leu-D-Trp-Lys(cyclization)-Ser-Ile-Gln-Asp(cyclization)-Leu-Arg-Arg-Arg-Phe-Phe-Leu-His-His-Leu-Ile-Ala-Glu-Ile-His-Thr-Ala-NH2”, for which the potency result on PTH1R receptor [3] was “increased potency”.

For “Leu-Leu-His-Asn-Leu-Gly-Lys-Ser-Ile-Gln-Asp-Leu-Arg-Arg-Arg-Phe-Phe-Leu-His-His-Leu-Ile-Ala-Glu-Ile-His-Thr-Ala-NH2 (LLHNLGKSIQDLRRRFFLHHLIAEIHTA-NH2)”, the “fold more potent than PTHrP 7-34” value with PTH1R receptor [3] (relative to PTHrP 7-34) is recorded as “(which is 23 fold more potent than PTHrP 7-34);”.

B1: Phe-Nle-His-Asn-Leu-Gly-Lys-(epsilon-3-phenylpropanoyl)-His-Leu-Ser-Ser-Nle-Glu-Arg-Val-Glu-Trp-Leu-Arg-Lys-Lys-Leu-Gln-Asp-Val-His-Asn-Tyr (peptide)
peptide: FXHNLGKHLSSXERVEWLRKKLQDVHNY
modifications: Nle (norleucine) at peptide positions 2 and 12 (written X in letters); Lys at peptide position 7 carries epsilon-3-phenylpropanoyl
With B1, the figures for the Ki in experiment [4] and in experiment [5] were 3.5 nM and 73 nM, respectively.
